PubChem BioAssay AID248 (DTP/NCI, 2004)
Toxic doses and inconclusive results are not listed. No stated cut-off is given here; in the data, active means T/C of 150% or more; inactive means T/C below 125%.

Tested on: L1210 leukemia ip in BDF1 mice, survival T/C
Experiment: NCI In Vivo Anticancer Drug Screen. Data for tumor model L1210 Leukemia (intraperitoneal) in B6D2F1 (BDF1) mice
Settings: endpoint: mean survival time, higher = longer survival
Summary of the method: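 Transplantable tumor model; survival measured in treated vs vehicle control mice. Value = treated/control.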

[1] = dose: 75.0 mg/kg/injection, schedule: Q01DX001 (ip), vehicle: acetone
[2] = dose: 150.0 mg/kg/injection, schedule: Q01DX001 (ip), vehicle: acetone
[3] = dose: 300.0 mg/kg/injection, schedule: Q01DX001 (ip), vehicle: acetone
[4] = dose: 100.0 mg/kg/injection, schedule: Q04DX003 (ip), vehicle: saline with Tween-80
[5] = dose: 200.0 mg/kg/injection, schedule: Q04DX003 (ip), vehicle: saline with Tween-80
[6] = dose: 400.0 mg/kg/injection, schedule: Q04DX003 (ip), vehicle: saline with Tween-80
[7] = dose: 100.0 mg/kg/injection, schedule: Q04DX003 (ip), vehicle: Klucel (hydroxypropylcellulose) (HPC)
[8] = dose: 200.0 mg/kg/injection, schedule: Q04DX003 (ip), vehicle: Klucel (hydroxypropylcellulose) (HPC)
[9] = dose: 400.0 mg/kg/injection, schedule: Q04DX003 (ip), vehicle: Klucel (hydroxypropylcellulose) (HPC)
[10] = dose: 100.0 mg/kg/injection, schedule: Q01DX009 (ip), vehicle: saline with Tween-80
[11] = dose: 200.0 mg/kg/injection, schedule: Q01DX009 (ip), vehicle: saline with Tween-80
[12] = dose: 400.0 mg/kg/injection, schedule: Q01DX009 (ip), vehicle: saline with Tween-80
[13] = dose: 25.0 mg/kg/injection, schedule: Q01DX009 (ip), vehicle: saline with Tween-80
[14] = dose: 50.0 mg/kg/injection, schedule: Q01DX009 (ip), vehicle: saline with Tween-80

Measured: T/C

CCCCNC(=O)c1c(Cl)c(Cl)c(Cl)c(Cl)c1C(=O)O
inactive: dose: 100.0 mg/kg/injection, schedule: Q04DX002 (ip), vehicle: saline with Tween-80 97 % of control | dose: 200.0 mg/kg/injection, schedule: Q04DX002 (ip), vehicle: saline with Tween-80 90 % of control

C1CCC2C(C1)CCCC2CC1CCCC2CCCCC21 (configuration not stated)
inactive: [1] 100 % of control | [2] 106 % of control | [3] 100 % of control

C#CCNc1ccccc1
inactive: dose: 100.0 mg/kg/injection, schedule: Q04DX002 (sc), vehicle: olive oil, sesame oil, peanut oil 102 % of control | dose: 200.0 mg/kg/injection, schedule: Q04DX002 (sc), vehicle: olive oil, sesame oil, peanut oil 102 % of control | dose: 400.0 mg/kg/injection, schedule: Q04DX002 (sc), vehicle: olive oil, sesame oil, peanut oil 109 % of control

Nc1ncnc2c1ncn2C1OC(COS(N)(=O)=O)C(O)C1O (configuration not stated)
inactive: dose: 0.5 mg/kg/injection, schedule: Q01DX001 (ip), vehicle: saline 113 % of control

Cc1cccc(N=C/C=C/c2ccccc2)c1C
inactive: dose: 100.0 mg/kg/injection, schedule: Q01DX009 (ip), vehicle: Klucel (hydroxypropylcellulose) (HPC) 94 % of control | dose: 200.0 mg/kg/injection, schedule: Q01DX009 (ip), vehicle: Klucel (hydroxypropylcellulose) (HPC) 100 % of control | dose: 400.0 mg/kg/injection, schedule: Q01DX009 (ip), vehicle: Klucel (hydroxypropylcellulose) (HPC) 108 % of control

CSc1nc(N)c(N=Nc2ccc(S(=O)(=O)Nc3nccs3)cc2)c(=O)[nH]1
inactive: dose: 100.0 mg/kg/injection, schedule: Q01DX001 (ip), vehicle: carboxymethylcellulose (CMC) 92 % of control | dose: 200.0 mg/kg/injection, schedule: Q01DX001 (ip), vehicle: carboxymethylcellulose (CMC) 92 % of control | dose: 400.0 mg/kg/injection, schedule: Q01DX001 (ip), vehicle: carboxymethylcellulose (CMC) 92 % of control

Cc1c(C)c(C)c(CN2CCCC2)c(C)c1C
inactive: dose: 12.5 mg/kg/injection, schedule: Q01DX005 (ip), vehicle: Klucel (hydroxypropylcellulose) (HPC) 107 % of control | dose: 12.5 mg/kg/injection, schedule: Q04DX002 (ip), vehicle: Klucel (hydroxypropylcellulose) (HPC) 109 % of control | dose: 25.0 mg/kg/injection, schedule: Q01DX005 (ip), vehicle: Klucel (hydroxypropylcellulose) (HPC) 97 % of control | dose: 25.0 mg/kg/injection, schedule: Q04DX002 (ip), vehicle: Klucel (hydroxypropylcellulose) (HPC) 86 % of control | dose: 35.0 mg/kg/injection, schedule: Q01DX009 (ip), vehicle: Klucel (hydroxypropylcellulose) (HPC) 90 % of control | dose: 50.0 mg/kg/injection, schedule: Q04DX002 (ip), vehicle: Klucel (hydroxypropylcellulose) (HPC) 112 % of control | dose: 100.0 mg/kg/injection, schedule: Q04DX002 (ip), vehicle: Klucel (hydroxypropylcellulose) (HPC) 94 % of control

CC1(c2ccc(Cl)cc2)NC(=O)N(CC(=O)Nc2ccccc2)C1=O (configuration not stated)
inactive: dose: 100.0 mg/kg/injection, schedule: Q04DX003 (ip), vehicle: acetone 101 % of control | dose: 200.0 mg/kg/injection, schedule: Q04DX003 (ip), vehicle: acetone 90 % of control | dose: 400.0 mg/kg/injection, schedule: Q04DX003 (ip), vehicle: acetone 93 % of control

CCN(CC)C(=S)S.[Cu+2]
inactive: dose: 100.0 mg/kg/injection, schedule: Q01DX001 (ip), vehicle: saline 105 % of control | dose: 200.0 mg/kg/injection, schedule: Q01DX001 (ip), vehicle: saline 102 % of control | dose: 400.0 mg/kg/injection, schedule: Q01DX001 (ip), vehicle: saline 105 % of control

CNS(=O)(=O)CCC1NC(=O)NC1=O (configuration not stated)
inactive: [4] 100 % of control | [5] 105 % of control | [6] 101 % of control

C[CH2][Sn]([CH2]c1ccccc1)([c]1ccccc1)[c]1ccccc1
inactive: [7] 95 % of control | [8] 101 % of control | [9] 93 % of control

NC(=O)CN1C(=O)c2ccccc2C1=O
inactive: [10] 97 % of control | [4] 97 % of control | [11] 89 % of control | [5] 97 % of control | [12] 91 % of control | [6] 97 % of control

O=S(=O)(F)c1c(Cl)cccc1CBr
inactive: [13] 100 % of control | [14] 96 % of control | [10] 86 % of control

CCCCCCC(O)CCCCCCCCCCC(=O)OC (configuration not stated)
inactive: [10] 98 % of control | [11] 88 % of control | [12] 92 % of control

CCCCCCCCSCCO
inactive: dose: 12.0 mg/kg/injection, schedule: Q01DX009 (ip), vehicle: saline with Tween-80 104 % of control | [13] 101 % of control | [14] 95 % of control | dose: 50.0 mg/kg/injection, schedule: Q04DX003 (ip), vehicle: saline with Tween-80 98 % of control | [4] 96 % of control | [5] 94 % of control | [6] 98 % of control

CCCCCCCCCCCCCCCCCCNC(=O)Nc1ccccc1CC
inactive: dose: 100.0 mg/kg/injection, schedule: Q01DX009 (sc), vehicle: olive oil, sesame oil, peanut oil 104 % of control | dose: 100.0 mg/kg/injection, schedule: Q04DX003 (sc), vehicle: olive oil, sesame oil, peanut oil 98 % of control | dose: 200.0 mg/kg/injection, schedule: Q01DX009 (sc), vehicle: olive oil, sesame oil, peanut oil 104 % of control | dose: 200.0 mg/kg/injection, schedule: Q04DX003 (sc), vehicle: olive oil, sesame oil, peanut oil 94 % of control | dose: 400.0 mg/kg/injection, schedule: Q01DX009 (sc), vehicle: olive oil, sesame oil, peanut oil 106 % of control | dose: 400.0 mg/kg/injection, schedule: Q04DX003 (sc), vehicle: olive oil, sesame oil, peanut oil 109 % of control

O=C1O[B-](c2ccccc2)(c2ccccc2)[NH2+]C1Cc1ccc(O)cc1 (configuration not stated)
inactive: [1] 91 % of control | [2] 96 % of control | [3] 95 % of control

C1CCC(C2OCCO2)CC1
inactive: dose: 100.0 mg/kg/injection, schedule: Q01DX009 (ip), vehicle: saline 98 % of control | dose: 100.0 mg/kg/injection, schedule: Q04DX003 (ip), vehicle: saline 97 % of control | dose: 200.0 mg/kg/injection, schedule: Q01DX009 (ip), vehicle: saline 118 % of control | dose: 200.0 mg/kg/injection, schedule: Q04DX003 (ip), vehicle: saline 94 % of control | dose: 400.0 mg/kg/injection, schedule: Q01DX009 (ip), vehicle: saline 88 % of control | dose: 400.0 mg/kg/injection, schedule: Q04DX003 (ip), vehicle: saline 92 % of control

CCOC(=O)C1C2OC(=O)C(C(=O)C2CN(CCCl)CCCl)C1c1ccc(OC(C)=O)cc1 (configuration not stated)
inactive: dose: 50.0 mg/kg/injection, schedule: Q04DX003 (ip), vehicle: Klucel (hydroxypropylcellulose) (HPC) 93 % of control | [7] 101 % of control | [8] 103 % of control | [9] 97 % of control
